Laboratory results reported in paper PMC11597879, “In Silico and In Vitro Investigation of Cytotoxicity and Apoptosis of Acridine/Sulfonamide Hybrids Targeting Topoisomerases I and II” (Pharmaceuticals, 2024).

Experiments:
human Topo-II = biological target: T1, human Topo-II (Homo sapiens, UniProt P11388); assay: Topoisomerase II inhibitory assay (supercoiled pHot1 DNA, gel electrophoresis); type: biochemical; settings: 37 °C 30 min
T1 construct: purchased TopoGEN TG1009
Description: (§1) Subsequently, these compounds were employed to evaluate their capacity to inhibit topoisomerase activity at the established IC50, using supercoiled DNA as a substrate. The resulting DNA products were separated via 1% gel electrophoresis and stained with ethidium bromide. […] To evaluate the catalytic activity of Topo-I, supercoiled DNA served as the substrate. Commercial samples of Topo I and supercoiled DNA were provided by […], TopoGEN, Inc. (Columbus, OH, USA).
To assess the Topo-II activity, a typical enzyme reaction was set up using human Topo-II, supercoiled pHot1 DNA as the substrate, the test drug, and the assay buffer. […] Following that, the DNA was stained and ran on a 1% agarose gel for one to two hours using a Bio-Rad gel electrophoresis apparatus. Both supercoiled and linear DNA strands were included in the gel to serve as indicators for DNA-Topo-II intercalation.

Topo-I = biological target: T2, Topo-I (Homo sapiens, UniProt P11387); assay: Topoisomerase I inhibitory assay (supercoiled DNA, gel electrophoresis); type: biochemical; settings: supercoiled DNA substrate, 37 °C 30 min
T2 construct: purchased TopoGEN, Inc. (Columbus, OH, USA) TG1018-1A
T2 sequence (P11387 1-765): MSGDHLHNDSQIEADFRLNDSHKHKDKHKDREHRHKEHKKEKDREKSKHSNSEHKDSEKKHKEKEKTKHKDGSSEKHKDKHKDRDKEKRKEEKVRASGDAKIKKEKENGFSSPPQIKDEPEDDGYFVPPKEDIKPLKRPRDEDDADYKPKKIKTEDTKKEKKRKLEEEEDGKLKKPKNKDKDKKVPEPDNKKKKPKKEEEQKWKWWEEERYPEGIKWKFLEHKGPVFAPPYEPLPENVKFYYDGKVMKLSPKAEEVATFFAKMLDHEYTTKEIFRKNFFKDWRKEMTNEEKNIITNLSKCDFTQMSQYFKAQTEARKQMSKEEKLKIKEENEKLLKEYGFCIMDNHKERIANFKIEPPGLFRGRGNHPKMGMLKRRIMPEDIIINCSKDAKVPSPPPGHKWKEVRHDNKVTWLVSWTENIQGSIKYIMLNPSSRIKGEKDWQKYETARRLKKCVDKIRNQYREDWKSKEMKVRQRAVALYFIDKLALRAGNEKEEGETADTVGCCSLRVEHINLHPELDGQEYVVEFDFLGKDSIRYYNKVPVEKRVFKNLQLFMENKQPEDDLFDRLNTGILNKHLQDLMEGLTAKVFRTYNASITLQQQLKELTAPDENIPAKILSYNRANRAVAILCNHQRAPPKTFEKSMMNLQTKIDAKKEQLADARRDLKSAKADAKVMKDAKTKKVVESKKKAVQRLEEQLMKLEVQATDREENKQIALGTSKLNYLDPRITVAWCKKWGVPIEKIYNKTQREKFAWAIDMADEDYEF
Description: as §1
To visualize the cleavage products after incubation, we used 1% agarose gel electrophoresis to separate the samples.

MCF-7 cells = test system: MCF-7 cells; parameters: method as in earlier work; settings: MTT, 48 h exposure; cited from earlier work
HepG2 cells [1] = test system: HepG2 cells; parameters: method as in earlier work; settings: MTT, 48 h exposure; read-out: IC50 HepG-2; cited from earlier work
HCT-116 cells = test system: HCT-116 cells; parameters: method as in earlier work; settings: MTT, 48 h exposure; cited from earlier work
THLE-2 cell line = assay: MTT cytotoxicity against normal cell line THLE-2; type: cell-based, human; settings: normal liver epithelial cells
Method: These cells were cultured in Dulbecco’s Modified Eagle’s Medium (DMEM) from Invitrogen/Life Technologies, supplemented with 10% Hyclone fetal bovine serum, […], and 1% penicillin and streptomycin. For experimental purposes, the cells were seeded in 96-well tissue culture plates at an approximate density of 5 × 10^3 cells per well and were allowed to incubate overnight. The following day, the culture medium was replaced with fresh medium containing varying concentrations of the synthesized compounds to be tested for their toxicity. After 48 h of exposure, the medium was removed, and the cells were washed twice with phosphate-buffered saline (PBS). A new medium containing MTT solution was added, and the cells were further incubated for 4 h. The cellular viability and toxicity in response to each compound were determined using ELISA microplate reader- Bioline by measuring the absorbance at a wavelength of 450 nm.

HepG2 cells [2] = assay: Annexin V-FITC/PI apoptosis assay; type: cell-based, human; settings: for apoptosis as extent of the level observed with SAHA / necrosis as extent of the level observed with SAHA: HepG2, relative to SAHA positive control; for cells in early apoptotic stage: lower right quadrant; for cells in late apoptotic stage: upper right quadrant
Method: An Annexin V-FITC assay was utilized to detect apoptosis in HepG2 cells. The cells were exposed to compounds 8b (3.4 µM) and 7c (7.3 µM) for 24 h, with untreated cells and cells treated with SAHA serving as negative and positive controls, respectively. After staining with propidium iodide (PI) and Annexin V-FITC, cell apoptosis was assessed via flow cytometry.

HepG2 cells [3] = assay: Cell cycle analysis (PI, flow cytometry); settings: HepG2, 24 h treatment, DNA content percentage
Method: Subsequently, the cells were harvested, fixed in 70% ethanol, and incubated for 12 h at 4 °C. After fixation, the cells were centrifuged, and the cell pellets were washed and resuspended in 0.5 mL of cold phosphate-buffered saline (PBS). The cells were then stained with 5 μg/mL of propidium iodide (PI; Sigma, Panama City, Panama), and the DNA content was determined using a BD FACSCalibur flow cytometer (Becton Dickinson, Franklin Lakes, NJ, USA). Data analysis was performed using CellQuest software, and 10,000 events were analyzed for each sample.

[4] = HepG2, 8b 3.4 µM, 7c 7.3 µM, 24 h (Figure 2 legend: 72 h)

T1 sequence (P11388 whole entry): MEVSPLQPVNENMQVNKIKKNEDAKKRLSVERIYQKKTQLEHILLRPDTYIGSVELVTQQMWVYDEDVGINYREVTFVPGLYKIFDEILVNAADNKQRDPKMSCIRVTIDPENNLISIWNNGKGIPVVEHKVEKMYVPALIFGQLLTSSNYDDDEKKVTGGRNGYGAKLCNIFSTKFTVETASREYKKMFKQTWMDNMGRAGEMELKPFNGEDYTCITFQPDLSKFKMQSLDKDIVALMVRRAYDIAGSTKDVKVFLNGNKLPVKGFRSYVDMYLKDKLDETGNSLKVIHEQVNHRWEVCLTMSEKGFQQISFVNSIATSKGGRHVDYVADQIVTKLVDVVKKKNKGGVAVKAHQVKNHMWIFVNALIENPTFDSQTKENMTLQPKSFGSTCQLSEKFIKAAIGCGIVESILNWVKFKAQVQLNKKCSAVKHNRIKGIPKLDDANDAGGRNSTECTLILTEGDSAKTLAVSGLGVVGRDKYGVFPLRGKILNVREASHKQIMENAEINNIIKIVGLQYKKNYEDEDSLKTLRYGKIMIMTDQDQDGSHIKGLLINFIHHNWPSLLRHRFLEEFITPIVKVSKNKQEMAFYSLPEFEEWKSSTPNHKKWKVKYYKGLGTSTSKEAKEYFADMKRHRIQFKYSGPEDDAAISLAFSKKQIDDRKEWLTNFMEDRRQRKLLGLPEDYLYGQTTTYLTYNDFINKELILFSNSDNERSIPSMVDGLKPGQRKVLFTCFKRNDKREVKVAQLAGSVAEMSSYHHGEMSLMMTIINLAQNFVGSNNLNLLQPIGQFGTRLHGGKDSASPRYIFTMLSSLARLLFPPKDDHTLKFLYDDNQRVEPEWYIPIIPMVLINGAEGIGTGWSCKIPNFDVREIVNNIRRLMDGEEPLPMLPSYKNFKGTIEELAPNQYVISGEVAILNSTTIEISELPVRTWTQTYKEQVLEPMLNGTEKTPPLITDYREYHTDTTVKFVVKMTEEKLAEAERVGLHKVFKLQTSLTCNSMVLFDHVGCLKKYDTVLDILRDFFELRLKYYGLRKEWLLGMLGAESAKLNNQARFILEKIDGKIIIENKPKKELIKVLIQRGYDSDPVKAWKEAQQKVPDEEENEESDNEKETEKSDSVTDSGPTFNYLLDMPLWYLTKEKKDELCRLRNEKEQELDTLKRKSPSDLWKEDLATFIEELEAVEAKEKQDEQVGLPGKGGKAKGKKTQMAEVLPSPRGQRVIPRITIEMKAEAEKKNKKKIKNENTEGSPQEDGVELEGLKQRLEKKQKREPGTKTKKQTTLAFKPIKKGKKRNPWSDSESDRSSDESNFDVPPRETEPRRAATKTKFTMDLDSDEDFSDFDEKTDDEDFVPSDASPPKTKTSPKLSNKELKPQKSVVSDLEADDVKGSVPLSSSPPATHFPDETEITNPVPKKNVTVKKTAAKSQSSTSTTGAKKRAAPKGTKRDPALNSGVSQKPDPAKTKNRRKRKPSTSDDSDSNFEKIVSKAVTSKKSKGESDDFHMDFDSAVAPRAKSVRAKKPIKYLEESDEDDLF

| SMILES | IC50 (human Topo-II) [µM] | IC50 (Topo-I) [µM] | IC50 (MCF-7 cells) [µM] | IC50 (HepG2 cells [1]) [µM] | IC50 (HCT-116 cells) [µM] | other results |
| --- | --- | --- | --- | --- | --- | --- |
| N.N.[Cl][Pt][Cl] [Cisplatin, reference compound] | 11.3 ± 0.62 | 5.71 ± 0.31 |  |  |  |  |
| Nc1ccc(Nc2c3ccccc3nc3ccccc23)cc1 [Compound 5b] |  |  | 5.88 ± 0.4 | 8.3 ± 0.7 | 8.93 ± 0.8 |  |
| S=C(Nc1ccccc1)Nc1ccc(Cc2ccc(Nc3c4ccccc4nc4ccccc34)cc2)cc1 [Compound 6a] | 101 ± 5.51 | 27.6 ± 1.5 | 40.9 ± 3.8 | 36.7 ± 3.5 | 47.2 ± 3.9 |  |
| S=C(Nc1ccccc1)Nc1ccc(Nc2c3ccccc3nc3ccccc23)cc1 [Compound 6b] | 24.5 ± 1.34 | 4.17 ± 0.23 | 16.5 ± 1.5 | 18 ± 1.7 | 13.1 ± 1.2 |  |
| O=[N+]([O-])c1ccccc1S(=O)(=O)Nc1ccc(Cc2ccc(Nc3c4ccccc4nc4ccccc34)cc2)cc1 [Compound 7a] | 8.07 ± 0.44 | 18.4 ± 1 | 88.4 ± 5.1 | 62.3 ± 4.4 | 72.2 ± 4.7 | melting point: 172 °C |
| Cc1ccc(S(=O)(=O)Nc2ccc(Cc3ccc(Nc4c5ccccc5nc5ccccc45)cc3)cc2)cc1 [Compound 7b] | 234 ± 12.7 | 82.5 ± 4.49 | 73.8 ± 4.5 | 93.6 ± 5.3 | 88.5 ± 4.8 | melting point: > 250 °C |
| CC(=O)Nc1ccc(S(=O)(=O)Nc2ccc(Cc3ccc(Nc4c5ccccc5nc5ccccc45)cc3)cc2)cc1 [Compound 7c] | 7.33 ± 0.4 | 16.6 ± 0.9 | 29.1 ± 2.7 | 31.1 ± 3.1 | 40.6 ± 3.7 | IC50 (THLE-2 cell line; Homo sapiens, THLE-2, 48 h): 55.5 µM; IC50 (THLE-2 cell line; 48 h): 104 ± 5.86 µM; apoptosis as extent of the level observed with SAHA (HepG2 cells [2]): 55%; necrosis as extent of the level observed with SAHA (HepG2 cells [2]): 88%; cells in early apoptotic stage (HepG2 cells [2]; [4]): 1.6%; cells in necrotic stage (HepG2 cells [2]; HepG2, 8b 3.4 µM, 7c 7.3 µM, 24 h (Figure 2 legend: 72 h), upper left quadrant): 5.9%; cells in late apoptotic stage (HepG2 cells [2]; [4]): 12%; %G2/M (HepG2 cells [3]): 28.12%; %Pre-G1 (HepG2 cells [3]): 19.61%; %S (HepG2 cells [3]): 29.27%; G0–G1 (HepG2 cells [3]): 42.61% |
| O=S(=O)(Nc1ccc(Cc2ccc(Nc3c4ccccc4nc4ccccc34)cc2)cc1)c1ccc(N=Nc2ccccc2)cc1 [Compound 7d] | 21.6 ± 1.18 | 7.67 ± 0.42 | 33.6 ± 3.3 | 45.5 ± 3.9 | 58 ± 4.3 |  |
| CC(C)c1cc(C(C)C)c(S(=O)(=O)Nc2ccc(Cc3ccc(Nc4c5ccccc5nc5ccccc45)cc3)cc2)c(C(C)C)c1 [Compound 7e] | 38.7 ± 2.1 | 42.2 ± 2.29 | 50.8 ± 4 | 55.4 ± 4.2 | 66.7 ± 4.5 |  |
| O=[N+]([O-])c1ccccc1S(=O)(=O)Nc1ccc(Nc2c3ccccc3nc3ccccc23)cc1 [Compound 8a] | 10.9 ± 0.59 | 15 ± 0.81 | 10.5 ± 1 | 20.6 ± 1.8 | 15.2 ± 1.6 |  |
| Cc1ccc(S(=O)(=O)Nc2ccc(Nc3c4ccccc4nc4ccccc34)cc2)cc1 [Compound 8b] | 16.2 ± 0.88 | 3.41 ± 0.19 | 8.83 ± 0.9 | 14.5 ± 1.4 | 9.39 ± 0.9 | IC50 (THLE-2 cell line; Homo sapiens, THLE-2, 48 h): 104 µM; IC50 (THLE-2 cell line; 48 h): 55.5 ± 3.13 µM; apoptosis as extent of the level observed with SAHA (HepG2 cells [2]): 79%; necrosis as extent of the level observed with SAHA (HepG2 cells [2]): 46%; cells in early apoptotic stage (HepG2 cells [2]; [4]): 3.5%; cells in late apoptotic stage (HepG2 cells [2]; [4]): 19.6%; %G2/M (HepG2 cells [3]): 9.66%; %Pre-G1 (HepG2 cells [3]): 26.95%; %S (HepG2 cells [3]): 39.15%; G0–G1 (HepG2 cells [3]): 51.19% |
| O=S(=O)(Nc1ccc(Nc2c3ccccc3nc3ccccc23)cc1)c1ccc(N=Nc2ccccc2)cc1 [Compound 8c] | 22 ± 1.2 | 21.4 ± 1.17 | 25.5 ± 2.4 | 22.4 ± 2 | 35.7 ± 3.4 |  |
| CC(C)c1cc(C(C)C)c(S(=O)(=O)Nc2ccc(Nc3c4ccccc4nc4ccccc34)cc2)c(C(C)C)c1 [Compound 8d] | 32.7 ± 1.78 | 11.9 ± 0.65 | 19.7 ± 1.7 | 23.1 ± 2.2 | 29.9 ± 2.8 |  |
| COc1cccc2c1C(=O)c1c(O)c3c(c(O)c1C2=O)C[C@@](O)(C(=O)CO)C[C@@H]3O[C@H]1C[C@H](N)[C@H](O)[C@H](C)O1 [Doxorubicin, reference compound] |  |  |  | 4.5 ± 0.2 |  |  |
| O=C(CCCCCCC(=O)Nc1ccccc1)NO [SAHA, reference compound] |  |  |  |  |  | IC50 (THLE-2 cell line; 48 h): 33.6 ± 1.89 µM; %G2/M (HepG2 cells [3]): 6.59%; %Pre-G1 (HepG2 cells [3]): 34.12%; %S (HepG2 cells [3]): 46.39%; G0–G1 (HepG2 cells [3]): 47.02% |
